The values below are quoted from earlier work in patent US10227355B2, “Quinoline derivatives and preparation thereof” (COUNCIL OF SCIENTIFIC AND INDUSTRIAL RESEARCH, priority 2015, dated 2019).

This series concerns Plasmodium cynomolgi B. The following applies: intramuscularly, 7 daily doses of 15 mg/kg; observation period of 120 d; rhesus monkeys.

`CCCCCCCCCCOc1cc2c(OC(C)=O)c(C(=O)OC)cnc2cc1OC(C)C` [WR 194905, 4-acetoxy-6-decyloxy-7-isopropoxy-3-methoxycarbonylquinoline]: the “anti-relapse (curative) activity” value was “curative”.

In the case of `CCCCc1cc2c(O)c(C(=O)OC)cnc2cc1OCCOc1ccccc1` [WR 197236, 6-butyl-4-hydroxy-3-methoxycarbonyl-7-β-phenoxyethoxyquinoline], the “anti-relapse (curative) activity” value is given as “curative”.
